Test results taken from patent publication US9226942B2, “Expanding hematopoietic stem cells” (priority 2010, dated 2016).

Columns and labels:
[1] = test system: human CD34+ cells; experiment: SR1-mediated expansion of human CD34+ cells; type: cell-based
[2] = test system: VentX; experiment: Quantitative (RT-)PCR of VentX expression in CD34+ cells; type: cell-based, human
Excerpt: Bone marrow (BW) samples were obtained from discarded femoral head tissue after hip replacement surgery from Brigham and Women's Hospital, with institutional IRB approval. After Ficoll separation of mononuclear cells, CD34+ cells were enriched using magnetically activated cell sorting CD34^+ progenitor kit (Miltenyi Biotec). The purity of the BW CD34+ cells was over 95%, as assessed by flow cytometry as described in Rizo et al., 2008.
Total RNA was isolated by the TRIzol method, and same amount of RNA was used for first-strand cDNA synthesis with SuperSript First-Strand Synthesis System (Invitrogen) according to the manufacturer's protocol. To determine VentX mRNA level, the cDNA was then used for real-time PCR of VentX with primers: 5′-CCGTCAGCATCAAGGAGG-3′ (SEQ ID NO: 19) and 5′-CTGGACCTCTGAGAGCTGC-3′ (SEQ ID NO: 20). Real-time PCR was also performed with SYBR Green on a LightCycler® 480 system (480 Real-Time PCR System; Roche).
Briefly, the lentiviral vector pHAGE-CMV-eGFPW that expresses a shRNA targeting VentX (pHAGE-shVentX) was used for the transduction of bone marrow CD34+ cells. This lentiviral vector contains an internal ribosome entry site (IRES) that allows simultaneous expression of GFP to monitor transduction rate or for cell sorting. The corresponding DNA sequence of VentX shRNA is SEQ ID NO: 12 or 14. […]

[3] = test system: BW CD34+ cells; experiment: Cytokine supplemented stroma-free liquid culture of CD34+ cells (cell counts, FACS); type: cell-based, human
[4] = test system: CD34+ cells; experiment: In vitro colony-forming cell (CFC) assay; type: cell-based, human
Protocol: Assays for in vitro colony-forming cells (CFCs) were performed by plating sorted GFP positive CD34+ cells (1×10^4 per dish) in triplicates in complete methylcellulose medium (Methocult G F, H4434; Stem Cell Technologies), which contains a mixture of recombinant human cytokines (SCF, IL-3, GM-CSF, and erythropoietin). Colonies were counted after 14 days of incubation at 37° C. and classified according to standard criteria.
Human BW CD34+ cells were obtained as described in Example 1. These cells were transfected with pCS2-GFP or pCS2-GFPVentX plasmid using the Human CD34+ cell Nucleofector Kit (Lonza) as described above. GFP-positive cells were sorted by FACSAria high-speed sorter after transfected for 24 hours.

[5] = colonies counted after 14 days, vs GFP control

Compound | expansion of CD34+ cells [1] | expression of VentX in the CD34+ cells [2] | expansion of HSCs in comparison with siGFP-transfected cells ([3]; 2 weeks culture) [fold] | percentage of CD34+ cells ([3]; siRNA-transfected cells) | increase in total number of progeny cells ([4]; based on the CFC assay) [fold] | increase in formation of BFU-E/CFU-E colonies [4, 5] [fold] | increase in formation of CFU-GM colonies [4, 5] [fold] | knockdown of VentX in CD34+ cells ([2]; quantitative PCR / RT-PCR) [%]
CC(C)n1cnc2c(NCCc3ccc(O)cc3)nc(-c3csc4ccccc34)nc21 [SR1, StemRegenin 1, reference compound] | increased | inhibited | – | – | – | – | – | –
siVentX: short oligonucleotides targeting VentX, siRNA SEQ ID NO: 5 (UUCAGAAUCGCCGCAUGAAACACAAACGG) (listed as RNA, chemistry not given here) | – | – | ~2 | an increase | ~2 | ~2 | ~2 | ~70
